Results taken from patent US11820758B2, “NEK6 kinase inhibitors useful for the treatment of solid tumors” (CONSIGLIO NAZIONALE DELLE RICERCHE, priority 2018, dated 2023).
Where two headings read alike, the source gives them in different places.

Experiments:
PEO-1 [1] = test: Cytotoxicity (ATPlite, 72 h) on PEO-1; type: cell-based; settings: Homo sapiens, PEO1, 72 h, PEO-1 (ovary), read-out: IC50 values (μM ± SEM)
Protocol: (§1) The compounds C8 and C21 identified in the previous assay of enzymatic activity were tested on 8 tumour cell lines representative of different solid tumours: MDA-MB231 and MCF7 (mammary tumour; ATCC, LGC Standards S.r.L, Sesto San Giovanni, MI), PEO1 and COV318 (ovarian tumour; ECACC, Saltssbury, UK), HCT-15 and SW948 (colon tumour; ECAC and ATCC, Sesto San Giovanni, MI), NCI-H1975 and NCI-H1299, (lung tumour; ATCC). Through experiments of cytotoxicity the capability of such compounds of inhibiting the cell growth was evaluated.
(§2) The cell lines were kept in culture in 75-cm^2 average flasks in atmosphere humidified with 5% CO2/95% air in the following media: DMEM supplemented with 10% FBS, 1% Kanamycin, 1% amino acids not essential for MDA-MB231 and MCF7; RPMI 10% FBS, 1% Kanamycin, 1% amino acids not essential for COV318, NCI-H1975 and NCI-H1299, with addition of 2 mM Sodium Pyruvate for PEO-1; RPMI 20% FBS, 1% Kanamycin, 1% amino acids not essential for HCT-15; LEIBOVITZ'S L15, 10% FBS, 1% Kanamycin, 1% amino acids not essential for SW948. All reagents were purchased at Sigma-Aldrich (St. Louis, MO) if not otherwise specified.
24 h after plating the compounds were added in quadruplicate at the following concentrations: C8 (6 μM; 12 μM; 24 μM; 48 μM; 96 μM; 192 μM) and C21 (8 μM; 16 μM; 32 μM; 64 μM; 128 μM; 256 μM). […]

MCF-7 = test: Cytotoxicity (ATPlite, 72 h) on MCF-7; type: cell-based; settings: Homo sapiens, MCF7, MCF-7 (breast), read-out: IC50 values (μM ± SEM)
Protocol: as §1, §2
(§3) MCF-7 were plated (40,000 cells/ml) in a 96-well black plate. […] 24 h after plating the compounds were added in quadruplicate at the following concentrations: C8 (6 μM; 12 μM; 24 μM; 48 μM; 96 μM; 192 μM) and C21 (8 μM; 16 μM; 32 μM; 64 μM; 128 μM; 256 μM).

NCI-H1975 = test: Cytotoxicity (ATPlite, 72 h) on NCI-H1975; type: cell-based; settings: Homo sapiens, NCI-H1975 (lung), read-out: IC50 values (μM ± SEM)
Protocol: as §1, §2
(§4) 24 h after plating the compounds were added in quadruplicate at the following concentrations: C8 (6 μM; 12 μM; 24 μM; 48 μM; 96 μM; 192 μM) and C21 (8 μM; 16 μM; 32 μM; 64 μM; 128 μM; 256 μM).

NEK6 [2] = molecular target: T1, NEK6 (Homo sapiens, UniProt Q9HC98); test: Off-chip Mobility Shift Assay (MSA); type: biochemical; settings: CDK7 peptide 1000 nM, 5 h
Protocol: The inhibitory activity on NEK6 of the compounds C8 and C21 was checked with the technique of Off-chip Mobility Shift Assay (MSA) (CARNA Biosciences Study ID: CBS170097, CARNA Biosciences, Kobe). […] PKR inhibitor was used as positive control. […] of solution 4× of the compounds, […] of 4× Substrate/ATP/Metal solution, and […] of 2× kinase solution were prepared with the reaction buffer (20 mM HEPES, 0.01% Triton X-100, 1 mM DTT, pH7.5), mixed and incubated in wells of polypropylene in 384-well plate for 5 hours at room temperature. Afterwards, […] of Termination Buffer (QuickScout Screening Assist MSA; Carna Biosciences) were added. One proceeded with analysing the reaction with LabChip system (Perkin Elmer), by separating and quantizing the peaks of product and substrate. The kinase reaction was then evaluated based upon the ratio (P/(P+S)) calculated based upon the heights of peak of peptides product (P) and substrate (S). The reading value of the control reaction (complete reaction mix) was placed as 0% of inhibition and the bottom value (Enzima (−)) was placed as 100% of inhibition, then the inhibition percentage of each sample was calculated. The value of IC50 was calculated by means of a logistic model at 4 parameters of the inhibition curves by adaptation to a four-parameter logistic curve.

NEK6 [3] = molecular target: T1, NEK6; test: LANCE-Ultra NEK6 kinase assay; type: biochemical; settings: for IC50: LANCE-Ultra, 4 nM NEK6, 50 nM ULight-p70 S6K peptide, 100 μM ATP, 90 min, average of 4 experiments ± SEM, read-out: IC50 of NEK6 activity inhibition; for NEK6 activity inhibition in screening: single concentration 30 μM, FIG. 1
Protocol: FIG. 1. NEK6 activity inhibition. Bar graph representing the results of the screening of several compounds at 30 μM by using LANCE-Ultra NEK6 kinase assay (PerkinElmer) incubated with 4 nM NEK6, 50 nM ULight-p70 S6K Peptide and 100 μM ATP for 90 minutes at room temperature. As control inhibitor quercetin was used.
FIG. 2. FIG. 2 represents the molecules identified with inhibitory activity on NEK6 by using LANCE-Ultra NEK6 kinase assay (PerkinElmer). The curves represent the % of NEK6 activity depending upon the inhibitor concentration. A) The compound 8 (ZINC05007751) is capable of inhibiting the NEK6 activity with 1050=3.4±1.2 μM; B) the compound 21 (ZINC04384801) inhibits NEK6 at 1050=2.6±0.05 μM. The IC50 value derives from the average of IC50s of 4 independent experiments±SEM. Each point of the curve represents the average of a triplicate±SEM of a representative experiment.
The compounds in powder (Molport, Riga, LV-1011, Latvia) were dissolved in DMSO 100% at a stock concentration of 10 mM. The fresh compounds were tested initially at a single concentration (30 μM) with LANCE NEK6 Ultra Kinase Assays (Perkin Elmer, Monza (MB)), whereas the remaining solution was aliquoted, kept at −20° C. and used for the enzymatic inhibition curves of the selected compounds. The reaction was performed in 384-OptiPlate™-384 (PerkinElmer #6007290) white plates, by using as reagents the Europium-labeled anti-phospho-p70 S6K (Thr389) Antibody (PerkinElmer #TRF0214), ULight-p70 S6K (Thr389) (PerkinElmer #TRF0126), NEK6 (Carna, Chuo-ku, Kobe, Japan, #05-130), LANCE® Detection Buffer, 10×(PerkinElmer #CR97-100), ATP (Sigma-Aldrich, Saint Louis, U.S.A, #A2383). NEK6, ATP and the compounds were diluted in Kinase Buffer (50 mM HEPES pH 7.5, 1 mM EGTA, 10 mM MgCl2, 2 mM DTT and 0.01% Tween-20), and where necessary DMSO was added to obtain a concentration of 0.3% in the final reaction volume. For the initial screening the compounds were tested at the final concentration of 30 μM, final DMSO 0.3% in kinase buffer and incubated with 4 nM NEK6, 50 nM ULight-p70 S6K Peptide and 100 μM ATP, in a reaction volume of 10 μL for 90 minutes at room temperature. As control inhibitor quercetin (Molport #001-740-557) was used. For the enzymatic inhibition curves, the selected compounds C8 (Molport #002-933-483), C21 (Molport #000-911-820) were diluted serially (dilutions 1:2) from 30 μM to 0.9375 μM (final concentrations: 30 μM; 15 μM; 7.5 μM; 3.75; 1.875 μM; 0.9375 μM in 0.3% DMSO) and incubated under the same conditions. […] After the film removal, the signal was read at the Enspire (PerkinElmer) plate reader (excitation 320 nm and emission at 665 nm). The % of enzymatic activity of NEK6 was calculated with respect to the control (100% activity), after subtracting the white of the experiment.

HCT-15 = test: Cytotoxicity (ATPlite, 72 h) on HCT-15; type: cell-based, human; settings: HCT-15 (colon), read-out: IC50 values (μM ± SEM)
Protocol: as §1, §2
as §3, with “HCT-15” for “MCF-7”, “μM). […] The compound 21 has no inhibitory activity (IC50>100 μM), (Table 1).” for “μM).”

MDA-MB-231 = test: Cytotoxicity (ATPlite, 72 h) on MDA-MB-231; type: cell-based, human; settings: MDA-MB-231 (breast), read-out: IC50 values (μM ± SEM)
Protocol: as §1, §2
24 h after plating the compounds were added in quadruplicate at the following concentrations: C8 (6 μM; 12 μM; 24 μM; 48 μM; 96 μM; 192 μM) and C21 (8 μM; 16 μM; 32 μM; 64 μM; 128 μM; 256 μM). […] Similarly, the compound 21 inhibits the growth by 50% at 75±12 μM.

SW948 = test: Cytotoxicity (ATPlite, 72 h) on SW948; type: cell-based; settings: Homo sapiens, SW948 (colon), read-out: IC50 values (μM ± SEM)
Protocol: as §1, §2, §4

COV318 = test: Cytotoxicity (ATPlite, 72 h) on COV318; type: cell-based; settings: Homo sapiens, COV318 (ovary), read-out: IC50 values (μM ± SEM)
Protocol: as §1, §2, §4

NCI-H1299 = test: Cytotoxicity (ATPlite, 72 h) on NCI-H1299; type: cell-based, human; settings: NCI-H1299 (lung), read-out: IC50 values (μM ± SEM)
Protocol: as §1, §2
24 h after plating the compounds were added in quadruplicate at the following concentrations: C8 (6 μM; 12 μM; 24 μM; 48 μM; 96 μM; 192 μM) and C21 (8 μM; 16 μM; 32 μM; 64 μM; 128 μM; 256 μM). […] The compound 21 has no inhibitory activity (IC50>100 μM), (Table 1).

PEO-1 [4] = test: cells; settings: Homo sapiens, PEO1, 72 h, read-out: IC50 (nM ± SEM)
Protocol: In order to prepare the cytotoxicity experiments the cells were trypsinized, counted with NEUBAUER chamber and plated in black plate having 96 wells per line (Perkinelmer). MDA-MB231, PEO-1, COV318, SW948, NCI-H1975 and NCI-H1299, were plated at 100,000 cells/ml, HCT-15 and MCF-7 at 40,000 cells/ml, In each well of the plate 200 μl of cell suspension were added. […] Parallelly, the single curves of each drug and of C8 were performed.
After 72 h from the addition of the compounds and/or drugs, the effect on the cell growth was evaluated by using the kit ATPlite (PerkinElmer) following the manufacturer's specifications. The luminescence signal was read at the instrument ENspire (PerkElmer). For each treated line, the % of inhibition of the growth with respect to the control and IC50 was calculated with software GraphPad Prism5 Software (San Diego, CA, USA). The combination index (CI) was calculated by using the program Compusyn (downloadable from www.combosyn.com), for the analysis of the combined effects of drugs based upon the equation of Chou-Talalay (Chou-Talalay, Adv Enzyme Regul 1984; 22:27-55). CI<1, =1, and >1 designates synergism, additive effect and antagonism, respectively.
PEO-1 were plated (100,000 cells/ml) in a 96-well black plate. In each well of the plate 200 μl of cell suspension were added.

PEO-1 [5] = test: Cytotoxic effect of compound 8 in combination with Cisplatin in PEO-1; type: cell-based, human; settings: PEO-1, 72 h; IC50 of cisplatin alone or with C8 fixed at 44 μM; read-out: IC50 (μM ± SEM)
Protocol: Cisplatin (Sigma-Aldrich, St. […] The luminescence signal was read at the instrument […]). […] Parallelly, the single curves of Cisplatin and compound 8 were performed. […] Pharmacol Rev. 2006; 58:621-81).

T1 sequence (Q9HC98 whole entry): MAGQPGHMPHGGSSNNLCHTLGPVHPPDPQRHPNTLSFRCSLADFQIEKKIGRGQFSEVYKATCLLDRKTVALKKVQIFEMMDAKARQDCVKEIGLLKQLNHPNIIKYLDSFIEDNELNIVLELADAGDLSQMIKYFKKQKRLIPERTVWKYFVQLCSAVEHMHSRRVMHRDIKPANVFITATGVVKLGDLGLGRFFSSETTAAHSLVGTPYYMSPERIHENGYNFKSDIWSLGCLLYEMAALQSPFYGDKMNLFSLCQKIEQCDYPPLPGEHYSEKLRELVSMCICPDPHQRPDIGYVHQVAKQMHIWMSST

Row | SMILES | IC50 (PEO-1 [1]) [µM] | IC50 (MCF-7) [µM] | IC50 (NCI-H1975) [µM] | IC50 (NEK6 [2]) [µM] | IC50 (NEK6 [3]) [µM] | NEK6 activity inhibition in screening (NEK6 [3]) | IC50 (HCT-15; Homo sapiens, HCT-15, 72 h) [µM] | IC50 (MDA-MB-231; Homo sapiens, MDA-MB-231, 72 h) [µM] | IC50 (MDA-MB-231) [µM] | IC50 (SW948) [µM] | IC50 (COV318) [µM] | IC50 (NCI-H1299; Homo sapiens, NCI-H1299, 72 h) [µM] | IC50 (HCT-15) [µM] | IC50 (NCI-H1299) [µM] | IC50 (PEO-1 [4]) [nM] | IC50 (PEO-1 [5]) [µM]
1 | Nc1nc2c(c(=O)[nH]1)C(c1ccccc1)C1=C(N2)c2ccccc2C1=O (stereo not drawn) [C21, 6-amino-2-phenyl-5,7,9-triazatetracycle[8.7.0.0^3,^8.0^11,^16]heptadeca 1(10),3(8),6,11,13,15 hexaene-4, 17-dione] | > 100 | > 100 | > 100 | 49.8 | 2.6 ± 0.05 | most active | > 100 | < 100 | 75 ± 12 | > 100 | > 100 | > 100 |  |  |  | 
2 | CC1=C(C#N)C(O)=NC(=O)/C1=C\c1ccc(-c2ccccc2)o1 [C8, (5Z)-2-hydroxy-4-methyl-6-oxy-5-[(5-phenylfuran-2il)methylidene]-5,6-dihydropyridine-3-carbonitrile] |  | > 100 | > 100 | 13.8 | 3.4 ± 1.2 | most active | < 100 | < 100 | 65 ± 15 | > 100 | > 100 | < 100 | 98.5 ± 0.5 | 87.8 ± 10 |  | 
3 | CC(=O)O[C@H]1C(=O)[C@@]2(C)[C@H]([C@H](OC(=O)c3ccccc3)[C@]3(O)C[C@H](OC(=O)[C@H](O)[C@@H](NC(=O)c4ccccc4)c4ccccc4)C(C)=C1C3(C)C)[C@]1(OC(C)=O)CO[C@@H]1C[C@@H]2O [Paclitaxel] |  |  |  |  |  |  |  |  |  |  |  |  |  |  | 7 ± 0.001 | 
4 | N.N.[Cl][Pt][Cl] [Cisplatin] |  |  |  |  |  |  |  |  |  |  |  |  |  |  |  | 7.9 ± 0.65
